Columns and labels:
Format in all cases: in vivo
[1] = test system: barnyardgrass (Echinochloa crus-galli); test: Test A pre-/postemergence plant response
In short: (§1)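 Each species was treated preemergence via directed soil spray and postemergence at the one- to two-leaf stage, with compounds formulated in a non-phytotoxic solvent plus surfactant. Visual injury relative to untreated controls was rated after about ten days on a 0–100 scale.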

[2] = test system: corn (Zea mays); test: Test A pre-/postemergence plant response
In short: as §1

[3] = test system: giant foxtail (Setaria faberii); test: Test A pre-/postemergence plant response
In short: as §1

[4] = test system: large crabgrass (Digitaria sanguinalis); test: Test A pre-/postemergence plant response
In short: as §1

[5] = test system: morningglory (Ipomoea spp.); test: Test A pre-/postemergence plant response
In short: as §1

[6] = test system: pigweed (Amaranthus retroflexus); test: Test A pre-/postemergence plant response
In short: as §1

[7] = test system: velvetleaf (Abutilon theophrasti); test: Test A pre-/postemergence plant response
In short: as §1

[8] = test system: wheat (Triticum aestivum); test: Test A pre-/postemergence plant response
In short: as §1

[9] = test system: cocklebur (Xanthium strumarium); test: Test B pre-/postemergence plant response
In short: (§2)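 Response scores were assigned visually after 13 to 15 days in a greenhouse, comparing treated pots with controls on a 0–100 scale where 100 denotes complete control. Preemergence treatments went onto freshly seeded loam/sand soil; postemergence treatments onto plants 2 to 18 cm tall.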

[10] = test system: giant foxtail (Setaria faberii); test: Test B pre-/postemergence plant response
In short: as §2

[11] = test system: green foxtail (Setaria viridis); test: Test B pre-/postemergence plant response
In short: as §2

[12] = Postemergence, 125 g ai/ha, 0 to 100 scale where 0 is no effect and 100 is complete control
[13] = Postemergence, 500 g ai/ha, 0 to 100 scale, 0 = no effect, 100 = complete control, approx. ten days
[14] = Preemergence, 125 g ai/ha, 0 to 100 scale, 0 = no effect, 100 = complete control
[15] = Preemergence, 500 g ai/ha, visual injury, 0 to 100 scale (0 no effect, 100 complete control), approx. ten days
[16] = 31 g ai/ha, postemergence, scale 0 to 100, 0 is no effect, 100 is complete control
[17] = 62 g ai/ha, postemergence, 0 is no effect, 100 is complete control, 13 to 15 days
[18] = Postemergence, 125 g ai/ha, scale 0 to 100 (0 no effect, 100 complete control)
[19] = Postemergence, 250 g ai/ha, scale 0 to 100 (0 no effect, 100 complete control)

Question: Which “Plant response rating, Barnyardgrass” value [1, 12] does the source give for O=C1CCCC(O)=C1C(=O)c1cnc(-c2cccs2)n(CC2CCCO2)c1=O (centres unmarked) [Compound 109] here?
Answer: The value was 80.

Question: What about the “Plant response rating, Barnyardgrass” value [1, 13] of the same molecule?
Answer: The value was 90.

Question: And the “Plant response rating, Barnyardgrass” value [1, 14]?
Answer: The value was 10.

Question: And the “Plant response rating, Barnyardgrass” value [1, 15]?
Answer: Its value is 70.

Question: What about the “Plant response rating, Corn” value [2, 12] of the same molecule?
Answer: The value was 0.

Question: What about the “Plant response rating, Corn” value [2, 13] of the same molecule?
Answer: Its value is 30.

Question: What about the “Plant response rating, Corn” value [2, 14] of the same molecule?
Answer: The value was 0.

Question: What about the “Plant response rating, Corn” value [2, 15] of the same molecule?
Answer: The value was 0.

Question: What about the “Plant response rating, Foxtail, Giant” value [3, 12] of the same molecule?
Answer: The value was 70.

Question: What about the “Plant response rating, Foxtail, Giant” value [3, 13] of the same molecule?
Answer: The value was 90.

Question: And the “Plant response rating, Foxtail, Giant” value [3, 14]?
Answer: Its value is 0.

Question: What about the “Plant response rating, Foxtail, Giant” value [3, 15] of the same molecule?
Answer: Its value is 30.

Question: What about the “Plant response rating, Crabgrass, Large” value [4, 12] of the same molecule?
Answer: The value was 90.

Question: And the “Plant response rating, Crabgrass, Large” value [4, 13]?
Answer: Its value is 100.

Question: And the “Plant response rating, Crabgrass, Large” value [4, 14]?
Answer: The value was 40.

Question: And the “Plant response rating, Crabgrass, Large” value [4, 15]?
Answer: The value was 90.

Question: And the “Plant response rating, Morningglory” value [5, 12]?
Answer: Its value is 90.

Question: What about the “Plant response rating, Morningglory” value [5, 13] of the same molecule?
Answer: The value was 100.

Question: And the “Plant response rating, Morningglory” value [5, 14]?
Answer: The value was 40.

Question: What about the “Plant response rating, Morningglory” value [5, 15] of the same molecule?
Answer: Its value is 70.

Question: What about the “Plant response rating, Pigweed” value [6, 12] of the same molecule?
Answer: The value was 100.

Question: What about the “Plant response rating, Pigweed” value [6, 13] of the same molecule?
Answer: The value was 100.

Question: What about the “Plant response rating, Pigweed” value [6, 14] of the same molecule?
Answer: The value was 90.

Question: And the “Plant response rating, Pigweed” value [6, 15]?
Answer: Its value is 100.

Question: What about the “Plant response rating, Velvetleaf” value [7, 12] of the same molecule?
Answer: The value was 100.

Question: And the “Plant response rating, Velvetleaf” value [7, 13]?
Answer: Its value is 100.

Question: And the “Plant response rating, Velvetleaf” value [7, 14]?
Answer: Its value is 70.

Question: What about the “Plant response rating, Velvetleaf” value [7, 15] of the same molecule?
Answer: The value was 100.

Question: What about the “Plant response rating, Wheat” value [8, 12] of the same molecule?
Answer: The value was 0.

Question: And the “Plant response rating, Wheat” value [8, 13]?
Answer: The value was 0.

Question: And the “Plant response rating, Wheat” value [8, 14]?
Answer: The value was 0.

Question: What about the “Plant response rating, Wheat” value [8, 15] of the same molecule?
Answer: The value was 0.

Question: What about the “Plant response rating, Cocklebur” value [9, 16] of the same molecule?
Answer: Its value is 75.

Question: And the “Cocklebur plant response rating (0 to 100 scale)” value [9, 17]?
Answer: Its value is 98.

Question: And the “Plant response rating, Cocklebur” value [9, 18]?
Answer: The value was 100.

Question: What about the “Plant response rating, Cocklebur” value [9, 19] of the same molecule?
Answer: Its value is 100.

Question: What about the “Plant response rating, Foxtail, Giant” value [10, 16] of the same molecule?
Answer: The value was 70.

Question: What about the “Foxtail, Giant plant response rating (0 to 100 scale)” value [10, 17] of the same molecule?
Answer: Its value is 75.

Question: And the “Plant response rating, Foxtail, Giant” value [10, 18]?
Answer: Its value is 80.

Question: And the “Plant response rating, Foxtail, Giant” value [10, 19]?
Answer: Its value is 90.

Question: And the “Plant response rating, Foxtail, Green” value [11, 16]?
Answer: The value was 20.

Question: And the “Foxtail, Green plant response rating (0 to 100 scale)” value [11, 17]?
Answer: Its value is 80.

Question: What about the “Plant response rating, Foxtail, Green” value [11, 18] of the same molecule?
Answer: Its value is 85.

Question: And the “Plant response rating, Foxtail, Green” value [11, 19]?
Answer: The value was 98.

Reference: patent US8952024B2, “Herbicidal pyrimidone derivatives” (E I du Pont de Nemours and Company, priority 2009, dated 2015)
